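Test compounds were applied to cells in 96-well plates for 48 hours at 5 doses. Abbreviation: GI50, concentration required for 50% inhibition of growth.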 Activity calls are given as the source filed them. Rule as the data show it: active = GI50 up to about 1.1 µM and inactive = higher.
How the values were obtained:
Assay in all cases: NCI anticancer screen, dose series, 48 h
EKVX = system: EKVX
HCC 2998 = system: HCC 2998
HOP-92 = system: HOP-92
Hs-578T = system: Hs-578T
K562 = system: K562
MDA-MB-231 = system: MDA-MB-231
Malme-3M = system: Malme-3M
NCI-H226 = system: NCI-H226
NCI-H23 = system: NCI-H23
NCI-H460 = system: NCI-H460
OVCAR-4 = system: OVCAR-4
OVCAR-8 = system: OVCAR-8
SF-268 = system: SF-268
SF-295 = system: SF-295
SK-MEL-28 = system: SK-MEL-28
SK-MEL-5 = system: SK-MEL-5
SK-OV-3 = system: SK-OV-3
SNB-75 = system: SNB-75
T47D = system: T47D
UACC-257 = system: UACC-257

SMILES	GI50 (EKVX)	GI50 (HCC 2998)	GI50 (HOP-92)	GI50 (Hs-578T)	GI50 (K562)	GI50 (MDA-MB-231)	GI50 (Malme-3M)	GI50 (NCI-H226)	GI50 (NCI-H23)	GI50 (NCI-H460)	GI50 (OVCAR-4)	GI50 (OVCAR-8)	GI50 (SF-268)	GI50 (SF-295)	GI50 (SK-MEL-28)	GI50 (SK-MEL-5)	GI50 (SK-OV-3)	GI50 (SNB-75)	GI50 (T47D)	GI50 (UACC-257)
O=C1c2cc3c(cc2CC12Cc1cc4c(cc1C2=O)CCCC4)CCCC3	> 100 µM (inactive)	> 100 µM (inactive)	18.9 µM (inactive)	28.3 µM (inactive)	78.5 µM (inactive)	22.1 µM (inactive)	> 100 µM (inactive)	> 100 µM (inactive)	33.3 µM (inactive)	25.6 µM (inactive)	18.1 µM (inactive)	> 100 µM (inactive)	29.3 µM (inactive)	23.2 µM (inactive)	> 100 µM (inactive)	46.5 µM (inactive)	70 µM (inactive)	17.9 µM (inactive)	18.5 µM (inactive)	10.9 µM (inactive)
Cn1c(=O)c2c(nc3n2CC(C(=O)O)N3)n(C)c1=O (stereo not given)	> 100 µM (inactive)	> 100 µM (inactive)	> 100 µM (inactive)	> 100 µM (inactive)	9.1 µM (inactive)	> 100 µM (inactive)	> 100 µM (inactive)	> 100 µM (inactive)	> 100 µM (inactive)	> 100 µM (inactive)	> 100 µM (inactive)	> 100 µM (inactive)	> 100 µM (inactive)	> 100 µM (inactive)	> 100 µM (inactive)	> 100 µM (inactive)	> 100 µM (inactive)	> 100 µM (inactive)	> 100 µM (inactive)	> 100 µM (inactive)
C#CCn1c(=O)c2ccccc2n(CC#C)c1=O	> 10 µM (inactive)	> 10 µM (inactive)	> 10 µM (inactive)	> 10 µM (inactive)	> 10 µM (inactive)	> 10 µM (inactive)	> 10 µM (inactive)	> 10 µM (inactive)	> 10 µM (inactive)	> 10 µM (inactive)	> 10 µM (inactive)	> 10 µM (inactive)	> 10 µM (inactive)	> 10 µM (inactive)	> 10 µM (inactive)	> 10 µM (inactive)	> 10 µM (inactive)	> 10 µM (inactive)	> 10 µM (inactive)	> 10 µM (inactive)
NC1=C(N2CCCCC2)C(=O)NC2=N/C(=C\c3ccccc3)C(=O)N21	92.9 µM (inactive)	> 100 µM (inactive)	> 100 µM (inactive)	> 100 µM (inactive)	57.5 µM (inactive)	> 100 µM (inactive)	> 100 µM (inactive)	> 100 µM (inactive)	> 100 µM (inactive)	> 100 µM (inactive)	86.3 µM (inactive)	> 100 µM (inactive)	> 100 µM (inactive)	> 100 µM (inactive)	> 100 µM (inactive)	> 100 µM (inactive)	> 100 µM (inactive)	> 100 µM (inactive)	> 100 µM (inactive)	> 100 µM (inactive)
COC(C)(C)OCCN1CCN(CCN2C3=C(C=C(C(C)=O)C3)Sc3ccccc32)CC1	42.1 µM (inactive)	20.4 µM (inactive)	29.5 µM (inactive)	15.8 µM (inactive)	15 µM (inactive)	22.3 µM (inactive)	21.3 µM (inactive)	22.9 µM (inactive)	27.2 µM (inactive)	18.8 µM (inactive)	28.6 µM (inactive)	20.9 µM (inactive)	19.6 µM (inactive)	19.5 µM (inactive)	16.4 µM (inactive)	17.5 µM (inactive)	35.8 µM (inactive)	30.5 µM (inactive)	23.9 µM (inactive)	20.3 µM (inactive)
O=C(/C=C/c1cccs1)c1ccccc1Cl	15.1 µM (inactive)	16.8 µM (inactive)	25.5 µM (inactive)	14.1 µM (inactive)	21.3 µM (inactive)	19.2 µM (inactive)	12.2 µM (inactive)	32.8 µM (inactive)	8.81 µM (inactive)	15.8 µM (inactive)	6.31 µM (inactive)	23.7 µM (inactive)	11.4 µM (inactive)	17.8 µM (inactive)	16.3 µM (inactive)	16.4 µM (inactive)	30.7 µM (inactive)	13.4 µM (inactive)	5.96 µM (inactive)	17.8 µM (inactive)
O=C(O)C1OC1(c1cccc(Cl)c1)c1ccccc1Cl (stereo not given)	25.4 µM (inactive)	25.9 µM (inactive)	23.1 µM (inactive)	25.4 µM (inactive)	16.7 µM (inactive)	18.1 µM (inactive)	19.7 µM (inactive)	38.2 µM (inactive)	20.8 µM (inactive)	42.7 µM (inactive)	23.5 µM (inactive)	32.1 µM (inactive)	20.6 µM (inactive)	25.7 µM (inactive)	22.1 µM (inactive)	20 µM (inactive)	22.5 µM (inactive)	19.9 µM (inactive)	20.7 µM (inactive)	26.6 µM (inactive)
CC(=O)Nc1ccc(-c2nc3ccccc3s2)cc1Br	10.5 µM (inactive)	0.29 µM (active)	46 µM (inactive)	15.7 µM (inactive)	> 100 µM (inactive)	39.2 µM (inactive)	> 62.1 µM (inactive)	2.42 µM (inactive)	27.4 µM (inactive)	> 92.5 µM (inactive)	> 38.7 µM (inactive)	31 µM (inactive)	44.3 µM (inactive)	30.8 µM (inactive)	> 100 µM (inactive)	> 100 µM (inactive)	23.2 µM (inactive)	32.1 µM (inactive)	0.687 µM (active)	> 100 µM (inactive)
COc1ccc2cc(CNCCOCCOCCNCc3ccc4cc(OC)ccc4c3)ccc2c1	1.57 µM (inactive)	0.104 µM (active)	0.593 µM (active)	1.64 µM (inactive)	0.118 µM (active)	1 µM (active)	1.43 µM (inactive)	1.55 µM (inactive)	1.5 µM (inactive)	0.655 µM (active)	1.92 µM (inactive)	1.49 µM (inactive)	1.42 µM (inactive)	1.17 µM (inactive)	0.869 µM (active)	0.675 µM (active)	1.79 µM (inactive)	1.38 µM (inactive)	1.06 µM (active)	1.58 µM (inactive)
CCCCCC(=O)Nc1[nH]cnc1C(N)=O	> 100 µM (inactive)	> 100 µM (inactive)	71.3 µM (inactive)	> 100 µM (inactive)	> 100 µM (inactive)	> 100 µM (inactive)	> 100 µM (inactive)	> 100 µM (inactive)	> 100 µM (inactive)	> 100 µM (inactive)	> 100 µM (inactive)	> 100 µM (inactive)	> 100 µM (inactive)	> 100 µM (inactive)	> 100 µM (inactive)	> 100 µM (inactive)	> 100 µM (inactive)	> 100 µM (inactive)	> 100 µM (inactive)	> 100 µM (inactive)

Reference: ChEMBL document CHEMBL1201862, “PubChem BioAssay data set” (2004)
